Laboratory results reported in PubChem BioAssay (NCI).
Values joined by “and” are separate entries in the source; they are usually repeats but may differ in a detail not shown here. Equal values may be shown once.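 Following 48 hours of exposure in 96-well plates, responses at five concentrations were used to interpolate endpoints linearly. GI50 is the concentration that inhibits growth by half. TGI: total growth inhibition.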

Legend:
Assay in all cases: NCI-60 cell line screen, 48 h
SK-OV-3 ovarian = system: SK-OV-3 ovarian
IGROV1 ovarian = system: IGROV1 ovarian
OVCAR-5 ovarian = system: OVCAR-5 ovarian
NCI-H23 lung = system: NCI-H23 lung
M14 melanoma = system: M14 melanoma
NCI-H522 lung = system: NCI-H522 lung
SN12C renal = system: SN12C renal
UACC-257 melanoma = system: UACC-257 melanoma
SNB-75 CNS = system: SNB-75 CNS
OVCAR-8 ovarian = system: OVCAR-8 ovarian

SMILES	GI50 (SK-OV-3 ovarian)	TGI (SK-OV-3 ovarian)	GI50 (IGROV1 ovarian)	TGI (IGROV1 ovarian)	GI50 (OVCAR-5 ovarian)	TGI (OVCAR-5 ovarian)	GI50 (NCI-H23 lung)	TGI (NCI-H23 lung)	GI50 (M14 melanoma)	TGI (M14 melanoma)	GI50 (NCI-H522 lung)	TGI (NCI-H522 lung)	GI50 (SN12C renal)	TGI (SN12C renal)	GI50 (UACC-257 melanoma)	TGI (UACC-257 melanoma)	TGI (SNB-75 CNS)	GI50 (OVCAR-8 ovarian)	TGI (OVCAR-8 ovarian)	GI50 (SNB-75 CNS)
O=C1c2ccccc2-c2c1c1ccc([N+](=O)[O-])cc1c(=O)n2CCCn1ccnc1	9.63 µM	> 39.5 µM	0.696 µM	2.71 µM	0.984 µM	4.25 µM	0.119 µM	0.292 µM	0.106 µM	0.453 µM	1.08 µM	5.68 µM	0.0153 µM	0.0378 µM	0.379 µM	1.83 µM	0.862 µM	0.118 µM	4.78 µM	
CCCc1n(Cc2ccc3ccccc3n2)cc[n+]1Cc1ccc2ccccc2c1	1.26 µM	4.02 µM	0.807 µM	3.48 µM	2.39 µM	12.5 µM	0.479 µM	10.6 µM	0.637 µM	2.76 µM	0.249 µM	1.13 µM	0.478 µM	3.51 µM	0.347 µM	1.72 µM	3.47 µM	0.779 µM	4.65 µM	0.41 µM
O=C(COC(=O)c1cccc2c(=O)c3ccccc3[nH]c12)Nc1ccc(S(=O)(=O)Nc2ncccn2)cc1		> 100 µM		> 100 µM		> 100 µM		> 100 µM		> 100 µM		58.2 µM		> 100 µM		> 100 µM	92.7 µM		> 100 µM	
CN[C@H]1CC[C@]23C[C@]24CC[C@]2(C)[C@@H]([C@H](C)N(C)C)CC[C@@]2(C)[C@@H]4CC[C@H]3C1(C)C		38.2 µM		35.1 µM		60.7 µM		35.6 µM		37.2 µM		34.1 µM		29.1 µM		32.8 µM	33.2 µM		32.9 µM	
NC(N)=NC(N)=Nc1ccc(S(N)(=O)=O)cc1		> 100 µM		> 100 µM		> 100 µM		> 100 µM		> 100 µM		> 100 µM		> 100 µM		> 100 µM	> 100 µM		> 100 µM	
N/C(=N\N=C\c1ccc(O)c(O)c1)NO		> 100 µM		> 100 µM		> 100 µM		> 100 µM		> 100 µM		> 100 µM		> 100 µM		> 100 µM	> 100 µM		> 100 µM	
COc1ccc2c(c1OC)C(C=C(c1ccccc1)c1ccccc1)CN(C)C2 (stereo unspecified)		> 100 µM		43.5 µM		61.6 µM		63.1 µM		31.3 µM		41.5 µM		> 100 µM		54.8 µM	> 100 µM		67 µM	
COc1cc2ccc3c4cc(OC)c(OC(C)C)cc4c[n+](C)c3c2cc1OC		> 100 µM		> 100 µM		> 100 µM		> 100 µM		> 100 µM		70.1 µM		> 100 µM		> 100 µM	> 100 µM		> 100 µM	
CCC(=O)Nc1ncnc2ncn(C(=O)CC)c12		> 100 µM		> 100 µM		> 100 µM		> 100 µM		> 100 µM		> 100 µM		> 100 µM		> 100 µM	> 100 µM		> 100 µM	
O=C(Nc1ccc(-n2ccc3c(NC(=O)c4ccccc4)nccc32)cc1)c1ccc(N2CCOCC2)c(C(F)(F)F)c1	0.509 µM	28.2 µM	0.192 µM	> 42.6 µM	4.83 µM	> 76.1 µM	1.39 µM	> 44.8 µM	0.43 µM	> 68.2 µM	0.363 µM	18.2 µM	3.93 µM	> 100 µM	3.61 µM	55.5 µM	13.9 µM	0.115 µM	56.2 µM	0.518 µM
O=C(O)CNC(=O)C1NC(C(F)(F)F)(C(F)(F)F)OC1(C(F)(F)F)C(F)(F)F (stereo unspecified)		> 100 µM		> 100 µM		> 100 µM		> 100 µM		> 100 µM		> 100 µM		> 100 µM		> 100 µM	> 100 µM		> 100 µM	
COC1C(O)CC(OC2CC(OC3CC(O[C@@H]4C(=O)c5c(cc6cc(OC7CC(OC8CC(O)C(O)C(C)O8)C(O)C(C)O7)c(C)c(O)c6c5O)CC4[C@H](OC)[C@@H](O)C(C)=O)OC(C)C3O)OC(C)C2O)OC1C (stereo partly specified)	0.0211 µM	> 33.3 µM	0.0197 µM	> 33.3 µM	0.0309 µM	> 33.3 µM	0.00333 µM	1.12 µM	0.0202 µM	3.91 µM	0.016 µM	0.0648 µM	0.0192 µM	> 33.3 µM	0.0187 µM	0.0923 µM	3.32 µM	0.0217 µM	> 33.3 µM	0.0184 µM
COc1ccccc1N1CCN(CCCOc2ccc(C(=O)/C=C3/C(=O)Nc4ccccc43)cc2)CC1	28.2 µM	> 100 µM	12.1 µM	37.6 µM	16.6 µM	59.9 µM	6.19 µM	38.6 µM	11 µM	27 µM	11.9 µM	34.4 µM	19.9 µM	> 100 µM	9.79 µM	35.5 µM	43.9 µM	12 µM	55.5 µM	14.9 µM
CN1CCN(Cc2ccc(NC(=O)c3cccc(C#Cc4c(N)ncc5ccc(F)cc45)c3)cc2C(F)(F)F)CC1	1.19 µM	2.99 µM	0.597 µM	1.4 µM	0.849 µM	1.76 µM	0.865 µM	1.67 µM	0.463 µM	1.24 µM	0.756 µM	1.53 µM	0.663 µM	1.44 µM	0.969 µM	2.11 µM	0.866 µM	1.03 µM	2.56 µM	0.257 µM
COc1ccc(C[C@H]2NC[C@H](O)[C@H]2OC(C)=O)cc1		0.895 µM		0.153 µM		14.5 µM		0.52 µM		0.068 µM		0.118 µM		0.253 µM		2.89 µM	0.0668 µM		0.0897 µM	
Cn1cc2ccccc2c1-c1nc(F)nc(Nc2ccc(N)cc2)n1		33.8 µM		28.5 µM		61.9 µM		29.3 µM		27.3 µM		28.9 µM		47.4 µM		37.6 µM	42.9 µM		46.7 µM	

SMILES	GI50 (SK-OV-3 ovarian)	TGI (SK-OV-3 ovarian)	GI50 (IGROV1 ovarian)	TGI (IGROV1 ovarian)	GI50 (OVCAR-5 ovarian)	TGI (OVCAR-5 ovarian)	GI50 (NCI-H23 lung)	TGI (NCI-H23 lung)	GI50 (M14 melanoma)	TGI (M14 melanoma)	GI50 (NCI-H522 lung)	TGI (NCI-H522 lung)	GI50 (SN12C renal)	TGI (SN12C renal)	GI50 (UACC-257 melanoma)	TGI (UACC-257 melanoma)	TGI (SNB-75 CNS)	GI50 (OVCAR-8 ovarian)	TGI (OVCAR-8 ovarian)	GI50 (SNB-75 CNS)
N#Cc1ccc(NC(=O)Nc2nc3ccc(OC(F)(F)F)cc3s2)cc1	2.65 µM	11.1 µM	2 µM	16.1 µM	4.28 µM	16.1 µM	0.581 µM	6.02 µM	2.37 µM	6.53 µM	0.427 µM	3.09 µM	1.58 µM	8.64 µM	1.35 µM	6.4 µM	7.19 µM	2 µM	9.91 µM	1.84 µM
CC(C)=CCC/C(C)=C/CC/C(C)=C/C1CCC(=O)C1(C)C (stereo unspecified)		81 µM		39.4 µM		39.7 µM		41.1 µM		42.5 µM		29 µM		30.9 µM		42.7 µM	81.9 µM		38.7 µM	
[N-]=[N+]=NC1C2CC3CC(C2)CC1C3 (stereo unspecified)		> 100 µM		> 100 µM		> 100 µM		> 100 µM		> 100 µM		> 100 µM		> 100 µM		> 100 µM	> 100 µM		> 100 µM	
CC(C)Cc1ccc(C(C)/C=C2\CCC(CN3CCCCC3)C2=O)cc1 (stereo unspecified)		34.9 µM		9.05 µM		31.6 µM		20.8 µM		18.2 µM		2.9 µM		4.44 µM		26.4 µM	33.7 µM		12.8 µM	
CCCCCCC/C=C1\CCC(CN(C)C)C1=O (stereo unspecified)		43 µM		36.3 µM		36.7 µM		32.7 µM		23.6 µM		11.2 µM		17.5 µM		29.4 µM	33.1 µM		18 µM	
Cc1cc(C)c(O)c(CNCCCNCc2cc(C)cc(C)c2O)c1	3.62 µM	13.6 µM	4.52 µM	18.5 µM	4.23 µM	19.5 µM	7.46 µM	21.2 µM	1.8 µM	3.55 µM	3.41 µM	14.1 µM	5.23 µM	18.8 µM	2.14 µM	4.08 µM	2.78 µM	5.09 µM	20.3 µM	1.39 µM
C=C(C)[C@@H]1CC[C@]2(CN)CC[C@]3(C)[C@H](CC[C@@H]4[C@@]5(C)CCC(N)[C@@](C)(CO)[C@@H]5CC[C@]43C)[C@@H]12 (stereo partly specified)	1.8 µM	3.2 µM	1.92 µM	3.65 µM	1.73 µM	3.15 µM	1.96 µM	3.61 µM	1.81 µM	3.32 µM	1.86 µM	3.5 µM	1.74 µM	3.24 µM	1.77 µM	3.24 µM	3.07 µM	1.86 µM	3.57 µM	1.62 µM
COCC(=O)NC/C=C/c1ccc2ncnc(Nc3ccc(Oc4ccc(C)nc4)c(C)c3)c2c1	0.295 µM	4.52 µM	15.9 µM	> 89.2 µM	12.7 µM	35.9 µM	17.4 µM	55.4 µM	11.4 µM	31 µM	3.4 µM	25.8 µM	12 µM	35.7 µM	14.9 µM	36.1 µM	27.2 µM	15.9 µM	92.4 µM	12.5 µM
C[C@H](C(O)CC(=O)C(C)(C)O)[C@H]1CC[C@@]2(C)[C@@H]3CC[C@H]4C(C)(C)[C@@H](OC5OC(COC6OC(CO)C(O)C(O)C6O)C(O)C(O)C5O)CC[C@]4(C)C3=CC[C@]12C (stereo partly specified)		> 100 µM		> 100 µM		> 100 µM		> 100 µM		> 100 µM		> 100 µM		> 100 µM		> 100 µM	> 100 µM		> 100 µM	
COC(=O)c1ccc(/C=C/S(=O)(=O)c2ccccc2)cc1		> 100 µM		> 100 µM		> 100 µM		> 100 µM		> 100 µM		> 100 µM		> 100 µM		> 100 µM	> 100 µM		> 100 µM	
CCN(CC)/[N+]([O-])=N/OCC(C)O (stereo unspecified)		> 100 µM		> 100 µM		> 100 µM		> 100 µM		> 100 µM		> 100 µM		> 100 µM		> 100 µM	> 100 µM		> 100 µM	
CCC1(N)C(=O)OCc2c1cc1n(c2=O)Cc2cc3ccccc3nc2-1 (stereo unspecified)	8.99 µM	72 µM and > 100 µM	15.6 µM	> 100 µM	30 µM	> 100 µM		38.2 µM and 54.4 µM		54 µM and > 100 µM	8.51 µM	> 100 µM	6.27 µM	> 100 µM	24.4 µM	> 100 µM	> 78.9 µM	12 µM	> 72.4 µM	
Cc1ccc(-c2cc(=O)c3cc(C)c(C)c(C(=O)O)c3o2)cc1[N+](=O)[O-]		> 100 µM		> 100 µM		> 100 µM		> 100 µM		> 100 µM		> 100 µM		> 100 µM		> 100 µM	> 100 µM		> 100 µM	
CN1CCN(c2ccc(-c3cccc(CN4CCOCC4)c3)cc2NC(=O)c2c[nH]c(=O)cc2C(F)(F)F)CC1	> 100 µM	> 100 µM	60.7 µM	> 100 µM	> 100 µM	> 100 µM	> 100 µM	> 100 µM	17.2 µM	36.9 µM	16.7 µM	39.5 µM	> 100 µM	> 100 µM	16.9 µM	31.6 µM	99.8 µM	48.7 µM	> 100 µM	13.6 µM
C/C(=N\NS(=O)(=O)c1c(C)cc(C)cc1C)c1ccc[n+]([O-])n1		> 100 µM		99.2 µM		56.1 µM		34 µM		20.7 µM		21 µM		29.2 µM		22.7 µM	41.2 µM		79 µM	
